Reference: patent publication US10143696B2, “Methods and compositions for decreasing gastric emptying” (priority 2015, dated 2018)
“Also recorded” adds a separate entry of the source.

Test system: Sprague-Dawley rats
Assay: Gastric emptying of a test meal in rats
Format: in vivo, rat
Procedure: Rats were fasted overnight (16-18 hours) with free access to water. The next morning, compound was administered and animals were individually housed in bedding-free cages with pre-weighed food available ad libitum and access to water for 2 hours. The water and food were then removed and the remaining food was re-weighed. Gastric emptying of the ingested meal was assessed 4 hours later. Animals were euthanized by CO2 inhalation followed by thoracotomy. The abdominal cavity was opened, the pylorus and cardia were clamped and the stomach was removed. The excised stomach was weighed and then opened along the greater curvature, rinsed with tap water, lightly dried and re-weighed. The amount of food in the stomach (grams) was estimated based on the difference between the total weight of the stomach plus its contents and the weight of the stomach after the contents were removed. The meal ingested (food intake) was determined by the difference between pre- and post-feeding weight at the end of the 2 hour period. Gastric emptying during the 4 hour experiment is represented as: Gastric emptying=[1−(gastric content/food intake)]×100. Gastric Secretion
Male, Sprague-Dawley rats (weighing between 229-264 g each and 4 rats per test group) were fasted overnight (19 hours). The rats were then orally administered 10 mg/kg, 30 mg/kg or 100 mg/kg of Compound A with a 0.5% MC or Capryol:Solutol:Polyethyleneglycol (CSP) vehicle or with a 0.5% MC or CSP vehicle alone. The rats were then placed in individual, bedding-free cages and allowed ad libitium access to pre-weighed food and water for two hours. The food and water were then removed and the food was reweighed. Gastric emptying was then assessed four hours later by euthanizing the rats and analyzing the stomach and stomach contents. […] Data are represented as the means+the standard error of the means (S.E.M). % Gastric Emptying in 4 hours=(1−(gastric content/food intake))×100. […] Data are represented as the means+S.E.M.
Male, Sprague-Dawley rats (weighing between 235-268 g each and 4-6 rats per test group) were fasted overnight (19 hours). The rats were then subcutaneously administered 10 mg/kg, 30 mg/kg or 100 mg/kg of carbamazepine (Compound B) with a 25% HPBCD vehicle or with a 25% HPBCD vehicle alone. Some test animals were not dosed (i.e., naïve). The rats were then placed in individual, bedding-free cages and allowed ad libitium access to pre-weighed food and water for two hours. The food and water were then removed and the food was reweighed. […] Data are represented as the means+S.E.M. % Gastric Emptying in 4 hours=(1−(gastric content/food intake))×100.
Male, Sprague-Dawley rats (weighing between 238-274 g each and 6 rats per test group) were fasted overnight (19 hours). The rats were then orally administered 30 mg/kg, 100 mg/kg or 300 mg/kg of carbamazepine (Compound B) with a 0.5% MC vehicle or with a 0.5% MC vehicle alone. The rats were then placed in individual, bedding-free cages and allowed ad libitium access to pre-weighed food and water for two hours. The food and water were then removed and the food was reweighed. […] Data are represented as the means+S.E.M. % Gastric Emptying in 4 hours=(1−(gastric content/food intake))×100.
Male, Sprague-Dawley rats (weighing between 235-276 g each and 4-6 rats per test group) were fasted overnight (19 hours).

[1] = naïve rats, p.o. 100 mg/kg, 0.5% MC (Example 13)
[2] = p.o. 10, 30, 100 mg/kg, 0.5% MC or CSP vehicle (Example 1)

For `C[C@H](Nc1cc(C(N)=O)nc(-c2ccc(Oc3ccc(OC(F)(F)F)cc3)cc2)n1)C(N)=O` [Compound A], the “% Gastric Emptying in 4 hours” value (Compound A 3 mg/kg s.c. alone, 25% HPBCD (Examples 11, 12), 3 mg/kg) was “inhibits the percent of gastric emptying independently”, the gastric emptying (administered subcutaneously (Example 9)) was “decrease in gastric emptying” and the “gastric emptying inhibition potency of Compound A with a CSP vehicle compared to Compound D in 25% HPBCD” value (all dosages tested) was “maintains a greater gastric emptying inhibition potency as compared to Compound D”. For the same molecule, the “gastric emptying inhibition potency compared between compounds” value (comparison at equal or similar dosages, routes and vehicles) was “greater gastric emptying inhibition potency than Compound B; also recorded: greater gastric emptying inhibition potency when compared to Compound B; also recorded: greater gastric emptying inhibition potency at lower dosages; also recorded: highest in vivo potency”, the gastric emptying (lowest dose tested orally, 10 mg/kg) was about 0% and the “% Gastric Emptying in 4 hours” value [1] was “statistically significant decrease in gastric emptying”. The stomach weight [1] was “increase in stomach weight”, the “% Gastric Emptying in 4 hours” value [2] was “increased inhibition of gastric emptying” and the stomach weight [2] was “increased stomach weight”. The “gastric emptying inhibition and stomach weight increase, CSP vehicle compared to 0.5% MC vehicle” value (p.o. 10-100 mg/kg (Example 1)) was “greater inhibiting effect on gastric emptying and stomach weight increase was observed with a CSP vehicle”, the food intake (rat, in vivo) was “decreased food intake” and the stomach weight (rat, in vivo) was “increased stomach weight”. The “stomach weight and food intake” value (rat, in vivo) was “comparable to that of Compound A alone”, the “increase in potency on gastric emptying, subcutaneous as compared to oral administration” value (s.c. vs p.o.) was 3-10 fold and the food intake (vagotomized and naïve rats, p.o. 100 mg/kg (Example 13)) was “Food intake is inhibited”. For the same molecule, the stomach weight (vagotomized rats, p.o. 100 mg/kg, 0.5% MC, vs vagotomy alone (Example 13)) was “not statically significantly different from vagotomy alone” and the “% Gastric Emptying in 4 hours” value (vagotomized rats, p.o. 100 mg/kg, 0.5% MC, vs vagotomy alone (Example 13), 100 mg/kg) was “numerically additive effect on the inhibition of gastric emptying but not a statistically significant effect; also recorded: not statically significantly different from vagotomy alone”.
